In PMC8646019, “Azvudine is a thymus-homing anti-SARS-CoV-2 drug effective in treating COVID-19 patients” (Signal Transduction and Targeted Therapy, 2021):
Read-outs that look alike come from different tables or passages of the source.

Experiments:
[1] = Biodistribution and metabolism of remdesivir in rats (UHPLC-MS/MS); type: in vivo, Sprague-Dawley rats; conditions: rat; for Concentration in PBMCs / Concentration in epididymis / Concentration in lung / Concentration in brain / Concentration in heart / Concentration in liver / concentration at 2 h / concentration at 6 h: GS-5734 100 mg/kg i.p.; for Concentration in PBMCs / Concentration in epididymis / Concentration in lung / Concentration in brain / Concentration in heart / Concentration in liver: average n=5; for concentration at 2 h / concentration at 6 h: male, Sprague-Dawley, in vivo, 100 mg/kg
Protocol: 10 male Sprague-Dawley rats (250 ± 25 g) were purchased from Vital River Laboratories Co., LTD (Beijng, China). The rats were divided randomly into two groups with five rats in each, and were administered with GS-5734 at a single dose of 100 mg/kg, i.p. At the time point of 2h and 6h after drug administration, rats in one group were dissected with euthanization and blood samples as well as heart, liver, spleen, lung, kidney, brain, thymus, testis, and epididymis were collected for UHPLC-MS/MS analysis as mentioned above.
The analysis method was like that for FNC expect that the flow rate was set at 0.4 mL/min and the gradient elution was employed using the following program: 0-1.5min, 100-65%B; 1.5-4min, 65-60%B; 4-5min, 60-56%B. Multiple-reaction monitoring (MRM) mode was performed using the characteristic precursor to product ion transitions (Supplementary Table 4b).
The standard curves of blank kidney tissue matrix, plasma matrix and PBMCs matrix were applied for quantitative analysis of GS-5734 and its metabolites. GS-5734, Nuc, Nuc-MP and Nuc-TP were quantified using their own standard curves, and the metabolites of GS-5734 (Ala-Nuc and Nuc-DP) were quantified using Nuc-MP standard curves.
Figure. S4. […] 10 male Sprague-Dawley rats were administered with GS-5734 at a single dose of 100 mg/kg, i.p. At the time point of 2 h and 6 h after drug administration, five rats were dissected. The blood samples as well as heart, liver, spleen, lung, kidney, brain, thymus, testis, and epididymis were collected for UHPLC-MS/MS analysis performed on a UHPLC system (1290 series, Agilent Technologies, US) coupled to a triple quadrupole mass spectrometer (Agilent 6470 QQQ). a.

[2] = system: SARS-CoV-2 and HCoV-OC43 coronavirus; assay: Anti-coronavirus activity in vitro, summary over viruses and cells; type: cell-based; conditions: depending on viruses or cells
SARS-CoV-2 [3] = assay: Anti-SARS-CoV-2 assay in Calu-3 cells (qRT-PCR); type: cell-based
SARS-CoV-2 [4] = assay: Anti-SARS-CoV-2 assay in Vero E6 cells (qRT-PCR of viral RNA copies, CPE); type: cell-based
HCoV-OC43 = assay: Anti-HCoV-OC43 assay in H460 cells (CPE, Western blot, immunofluorescence); type: cell-based
[5] = Cytotoxicity in Vero E6 cells (Cell Titer 96 Aqueous one Solution Cell Proliferation Assay); type: cell-based; conditions: African green monkey, Vero E6, 48 h
Protocol: (§1) The cytotoxicity of the tested drugs in Vero E6 or Calu-3 Cells were determined by Cell Titer 96® Aqueous one Solution Cell Proliferation Assay (Promega, US). To evaluate the antiviral efficacy of the drugs, Vero E6 or Calu-3 cells were cultured overnight in 96-well plate with a density of 4 ×10^4 cells/well. Cells were pre-treated with the different doses of the indicated antivirals for 1 h. Viruses (MOI=0.05) were subsequently added to cells, followed by 1 h incubation. Then, the virus-drug mixture was removed and cells were further cultured with fresh drug-containing medium. At 48 h post infection (pi), the culture supernatant was collected and lysed in Trizol (Thermo, Cat no. 15596018) for further analysis. Remdesivir was tested as reference.

[6] = Cytotoxicity in Calu-3 cells (Cell Titer 96 Aqueous one Solution Cell Proliferation Assay); type: cell-based; conditions: human, Calu-3, 48 h
Protocol: as §1

N#C[C@@]1(c2ccc3c(N)ncnn23)O[C@H](COP(=O)(O)O)[C@@H](O)[C@H]1O [Nuc-MP]
Concentration in PBMCs ([1]; 2 h): 0.44 ng/10^6 cells
Concentration in epididymis ([1]; 2 h): 6493.99 ng/g tissue
Concentration in lung ([1]; 2 h): 3904.37 ng/g tissue
Concentration in PBMCs ([1]; 6 h): 0.32 ng/10^6 cells
Concentration in epididymis ([1]; 6 h): 555.72 ng/g tissue
Concentration in lung ([1]; 6 h): 309.88 ng/g tissue

C[C@H](NP(=O)(O)OC[C@H]1O[C@@](C#N)(c2ccc3c(N)ncnn23)[C@H](O)[C@@H]1O)C(=O)O [Ala-Nuc]
Concentration in PBMCs ([1]; 2 h): 0.55 ng/10^6 cells
Concentration in brain ([1]; 2 h): 24.16 ng/g tissue
Concentration in epididymis ([1]; 2 h): 24.05 ng/g tissue
Concentration in heart ([1]; 2 h): 3908.49 ng/g tissue
Concentration in liver ([1]; 2 h): 1304.94 ng/g tissue
Concentration in lung ([1]; 2 h): 82.87 ng/g tissue
Concentration in PBMCs ([1]; 6 h): 0.50 ng/10^6 cells
Concentration in brain ([1]; 6 h): 38.27 ng/g tissue
Concentration in epididymis ([1]; 6 h): 48.37 ng/g tissue
Concentration in heart ([1]; 6 h): 5730.68 ng/g tissue
Concentration in liver ([1]; 6 h): 416.97 ng/g tissue
Concentration in lung ([1]; 6 h): 73.42 ng/g tissue

N#C[C@@]1(c2ccc3c(N)ncnn23)O[C@H](COP(=O)(O)OP(=O)(O)OP(=O)(O)O)[C@@H](O)[C@H]1O [Nuc-TP]
Concentration in PBMCs ([1]; 2 h): 12.32 ng/10^6 cells
Concentration in epididymis ([1]; 2 h): 486.87 ng/g tissue
Concentration in lung ([1]; 2 h): 3168.31 ng/g tissue
Concentration in PBMCs ([1]; 6 h): 12.82 ng/10^6 cells
Concentration in epididymis ([1]; 6 h): 1225.27 ng/g tissue
Concentration in lung ([1]; 6 h): 2057.66 ng/g tissue
level of Nuc-TP in the thymus ([1]; remdesivir ip, 2 and 6 h): below the detectable line

CC(C)OC(=O)[C@H](C)N[P@](=O)(OC[C@@]1(N=[N+]=[N-])O[C@@H](n2ccc(N)nc2=O)[C@@H](F)[C@@H]1O)Oc1ccccc1 [CL-236]
EC50 [2]: 1.2 to 4.3 µM
selective index (SI) [2]: 15–83
selectivity index (SI) (SARS-CoV-2 [3]; Calu-3): 83
EC50 (SARS-CoV-2 [3]; Severe acute respiratory syndrome coronavirus 2, Calu-3, MOI 0.05, qRT-PCR, 48 h, read-out: EC50, SARS-CoV-2 RNA replication): 1.2 µM
EC50 (SARS-CoV-2 [4]; Severe acute respiratory syndrome coronavirus 2, Vero C1008, 48 h, Vero E6, MOI 0.05, qRT-PCR, 48 h, read-out: EC50, SARS-CoV-2 RNA replication): 4.31 µM
selectivity index (SI) (SARS-CoV-2 [4]; Vero E6): 15.35
cytopathic effect (CPE) of SARS-CoV-2 (SARS-CoV-2 [4]; Vero E6, 48 h): protected the cells from SARS-CoV-2-caused cell death
EC50 (HCoV-OC43; Betacoronavirus 1, OC43, NCI-H460, evaluated by CPE, read-out: EC50, HCoV-OC43 infection): 1.2 µM
HCoV-OC43 N protein expression (HCoV-OC43; Western blot, 48 h): decrease in N protein expression
SI (HCoV-OC43; evaluated by CPE): 20
CC50 at 48 h [5]: 66.2 µM
CC50 at 48 h [6]: > 102 µM

N#C[C@@]1(c2ccc3c(N)ncnn23)O[C@H](COP(=O)(O)OP(=O)(O)O)[C@@H](O)[C@H]1O [Nuc-DP]
Concentration in PBMCs ([1]; 2 h): 0.15 ng/10^6 cells
Concentration in epididymis ([1]; 2 h): 33.09 ng/g tissue
Concentration in lung ([1]; 2 h): 146.16 ng/g tissue
Concentration in PBMCs ([1]; 6 h): 0.14 ng/10^6 cells
Concentration in epididymis ([1]; 6 h): 49.65 ng/g tissue
Concentration in lung ([1]; 6 h): 118.94 ng/g tissue

CCC(CC)COC(=O)[C@H](C)N[P@](=O)(OC[C@H]1O[C@@](C#N)(c2ccc3c(N)ncnn23)[C@H](O)[C@@H]1O)Oc1ccccc1 [Remdesivir, reference compound]
concentration at 2 h ([1]; 2 h, average n=5, read-out: Concentration in brain): 0.61 ng/g
concentration at 2 h ([1]; 2 h, average n=5, read-out: Concentration in epididymis): 42.1 ng/g
concentration at 2 h ([1]; 2 h, average n=5, read-out: Concentration in heart): 5.12 ng/g
concentration at 2 h ([1]; 2 h, average n=5, read-out: Concentration in kidney): 25.4 ng/g
concentration at 2 h ([1]; 2 h, average n=5, read-out: Concentration in liver): 38.4 ng/g
concentration at 2 h ([1]; 2 h, average n=5, read-out: Concentration in lung): 5.14 ng/g
concentration at 2 h ([1]; 2 h, average n=5, read-out: Concentration in spleen): 39.4 ng/g
concentration at 2 h ([1]; 2 h, average n=5, read-out: Concentration in testis): 2.88 ng/g
concentration at 2 h ([1]; 2 h, average n=5, read-out: Concentration in thymus): 29.9 ng/g
concentration at 6 h ([1]; 6 h, average n=5, read-out: Concentration in brain): 0.78 ng/g
concentration at 6 h ([1]; 6 h, average n=5, read-out: Concentration in epididymis): 0.6 ng/g
concentration at 6 h ([1]; 6 h, average n=5, read-out: Concentration in heart): 28.6 ng/g
concentration at 6 h ([1]; 6 h, average n=5, read-out: Concentration in kidney): 0.84 ng/g
concentration at 6 h ([1]; 6 h, average n=5, read-out: Concentration in liver): 13.1 ng/g
concentration at 6 h ([1]; 6 h, average n=5, read-out: Concentration in lung): 0.87 ng/g
concentration at 6 h ([1]; 6 h, average n=5, read-out: Concentration in spleen): 0.32 ng/g
concentration at 6 h ([1]; 6 h, average n=5, read-out: Concentration in thymus): 2.74 ng/g
